The record followed here is patent EP2508186A1, “Phenoxazinones or phenothiazones as inhibitors of amyloid formation” (Max-Delbrück-Centrum für Molekulare Medizin, priority 2011, dated 2012).

The target in test [1] is T1, Aβ42 (Homo sapiens, UniProt P05067).
T1 construct: the amyloid-β 1-42 (Aβ42) peptide
Put plainly: Transmission electron microscopy (TEM/AFM) of Aβ42 aggregate species. The format is biochemical. On the procedure: 2.1.1. Protein aggregation. For aggregation reactions, Aβ42 stock solution (1 mM in DMSO) was diluted in phosphate buffer (100 mM sodium phosphate, 10 mM NaCl, pH 7.4) to 15 µM and incubated in 1.5 ml Eppendorf tubes (Eppendorf, Germany) at 37°C. Generation of soluble Aβ42 oligomers was performed as described (Lambert, 1998). Aβ42 DMSO stock solutions were diluted in Ham's F12 medium without phenol red (Biosource) at a final peptide concentration of 100 µM, with or without test compounds. After brief vortexing, samples were incubated at 4-6°C for 24 h. Alternatively, Aβ42 oligomers were prepared as described in (Ma, 2006) by diluting DMSO stock solution to a final Aβ42 concentration of 110 µM in 10 mM HEPES buffer pH 7.4. Samples were incubated in a glass vial with a micro stir bar at 37°C for 24 h and subsequently centrifuged (Beckman Coulter Microfuge R, rotor F241.5P) at 13,000 rpm.
2.2.2. 04 promotes the assembly of seeding-competent, β-sheet-rich Aβ42 fibrils. To examine the morphology of 04-generated protein aggregates, time course experiments were carried out and evaluated by transmission electron microscopy (TEM). After an incubation period of 4 d, worm-like Aβ42 protofibrils (Walsh, 1999) with a length of ∼30-150 nm and a diameter of -5 nm were predominantly detected in untreated aggregation reactions (Fig. 2c). […] A similar result was obtained after an incubation period of 7 d (Fig. 2c). […] At the same time, the number of oligomeric structures was reduced in 04-treated aggregation reactions (p < 1*10^-4).
We then investigated whether 04 treatment influences the assembly of small Aβ42 oligomers, which are preferentially formed at low temperature in cell-free assays (Lambert, 1998). Aβ42 monomers were incubated for 24 h at 6-8°C in the presence and absence of 04 and formation of oligomers was analyzed by TEM. In agreement with previously published data soluble fractions of untreated aggregation reactions contained large numbers of predominantly spherical Aβ42 oligomers with a diameter of 5-15 nm (Fig. 3e). […] In the presence of 04 a relatively large number of long amyloid fibrils was detected in insoluble fractions, while such structures were not observed in the absence of the chemical compound. However, in pellet fractions of untreated aggregation reactions smaller protofibrillar aggregate species were detected by TEM (Fig. 3e).
Analysis of amyloid fibrils by TEM and AFM also support the antibody binding results. While untreated Aβ42 aggregates in agreement with previously published studies (Bieschke, 2005) are straight fibrils and show a plain, highly regular surface, such a fibrillar morphology was not detected with 04 treated samples (Fig. 7e and f).

The target of test [2] is T1, Aβ42. Put plainly: Circular dichroism (CD) spectroscopy of Aβ42 β-sheet formation. The format is biochemical. The conditions noted are these: Aβ42 15 µM, phosphate buffer. The text has this: Therefore, we investigated whether 04 treatment influences the structure of Aβ42 amyloid fibrils using circular dichroism (CD) spectroscopy (Ehrnhoefer, 2008).
Next, the conversion of unstructured Aβ42 monomers into β-sheet-rich early aggregates was investigated. The change in CD signal at 218 nm over the course of 3,000 s was monitored for 04-treated and untreated Aβ42 peptides.
A monoexponential data fit yielded a time constant of τ = 150 ± 40 s for O4-treated samples, while a time constant of τ = 350 ± 30 s was obtained for untreated samples.
In general terms: CD spectra are sensitive to the conformation of chiral molecules.

The target of test [3] is T1, Aβ42. Put plainly: Thioflavin T (ThT) seeding assay with 04-generated Aβ42 fibrils. It is filed as biochemical. The settings on record: fibrils produced with equimolar or 5-fold excess 04, sonicated seeds 3 % v/v added to Aβ42 15 µM monomers. From the text:
We also investigated whether 04-generated Aβ42 fibrils are indeed seeding-competent structures. Amyloid fibrils were produced in vitro in the presence and absence of 04 and added as seeds to an excess of unpolymerized Aβ42 monomers. The formation of β-sheet-rich amyloid fibrils was then monitored over time using a Thioflavin T (ThT) dye binding assay (LeVine, 1999). […] Thus, the β-sheet-rich Aβ42 fibrils produced in the presence of 04 are seeding-competent structures that efficiently promote amyloid fibrillogenesis.

Test [4] relates to SH-SY5Y neuroblastoma cells. In words: MTT assay of Aβ42 toxicity. The conditions noted are these: Aβ42 5 µM, different concentrations of 04, 48 h; Aβ42 alone ∼50% inhibition. It is filed as cell-based. The protocol:
2.2.8. 04-mediated acceleration of amyloidogenesis reduces Aβ42 toxicity in cell-based assays and brain slices. To study whether O4-mediated conversion of aggregation intermediates into stable amyloid fibrils influences Aβ42 toxicity, SH-SY5Y neuroblastoma cells were incubated for 48 h with soluble Aβ42 peptides and different concentrations of 04. Viability of cells was examined using a 3-(4,5-dimethylthiazol-2yl)-2,5-diphenyltetrazolium bromide (MTT) assay (Hansen, 1989).

Another test has as its system primary cortical neurons. In words: Aβ42 toxicity in primary cortical neurons. It is filed as cell-based. The settings on record: after addition of 04 to neuronal cultures.
In test [5] the test system is hippocampal rat brain slices. Put plainly: Hippocampal long-term potentiation (LTP) in brain slices, CA1 area. The conditions noted are these: Aβ42 monomers and small oligomers added to slices, with 04; LTP evoked by high-frequency stimulation. On the procedure:
Finally, we investigated whether 04 treatment influences Aβ42-mediated impairment of hippocampal long-term potentiation (LTP) in rat brain slices (Wang, 2004; Walsh, 2002). A preparation of Aβ42 peptides containing monomers and small oligomers was added to hippocampal brain slices and LTP was measured in the CA1 area.

Some results are limits rather than exact numbers.

T1 sequence (P05067 672-713 limits assumed): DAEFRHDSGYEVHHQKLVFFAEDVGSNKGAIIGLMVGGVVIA

For `O=c1cc2oc3cc(O)c(-c4ccc(O)cc4O)cc3nc-2cc1-c1ccc(O)cc1O` [Compound 04, 2,8-bis-(2,4-dihydroxyphenyl)-7-hydroxy-phenoxazin-3-one], the “morphology of amyloid fibrils (TEM and AFM)” value on Aβ42 [1] (Aβ42 15 µM, 04 75 µM, 4 d non-agitated, 37°C) is listed as “mostly bent amyloid fibrils with a rough, irregular surface”. In addition, the “number of oligomeric structures” value at Aβ42 [1] (Aβ42 15 µM, 04 150 µM, after 48 h, p < 1*10^-4) is on record as “reduced”. Further, the “number of long amyloid fibrils” value on Aβ42 [1] (Aβ42 15 µM, 04 150 µM, after 48 h, untreated control 1.3%, p < 1*10^-5) was 27%. For the same compound, the “length of amyloid fibrils” value at Aβ42 [1] (Aβ42 15 µM, 04 150 µM, incubation 4 d, untreated: protofibrils ∼30-150 nm) is over 500 nm. At Aβ42 [1] (Aβ42 100 µM, 04 10-fold molar excess, 24 h at 6-8°C in F12 medium), the “spherical Aβ42 oligomers in soluble fractions (TEM)” value is given as “only very rarely detected”. Besides, on Aβ42 [2] (04 75 µM, 37°C, monoexponential decay fit, control 350 ± 30 nm), the “time constant τ of β-sheet formation (ellipticity at 218 nm)” value came out at 150 ± 40 s. At Aβ42 [2] (04 75 µM, 37°C, monoexponential fit, untreated 350 ± 30 s), the “time constant τ of β-sheet formation (CD signal at 218 nm)” value came out at 150 ± 40 s. Also, the “CD spectra of Aβ42 fibrils” value at Aβ42 [2] (equimolar 04, 37°C) is on record as “CD spectra characteristic of β-sheet-rich amyloid structures”. Further, the “seeding competence of 04-generated Aβ42 fibrils (ThT fluorescence)” value on Aβ42 [3] was “accelerate amyloid polymerization”. Further, in test [4], the “Aβ42-caused inhibition of MTT reduction” value was “suppressed in a concentration-dependent manner”. Further, in the test on primary cortical neurons, the Aβ42-mediated cellular toxicity entry is listed as “significantly reduced”. Also, the “Aβ42 oligomer block of LTP” value in test [5] is listed as “suppressed”.
